Test results as given in patent US9273290B2, “Method for producing phosphite dehydrogenase protein and use thereof” (HIROSHIMA UNIVERSITY, priority 2011, dated 2016).
Values joined by “and” are separate entries in the source; they are usually repeats but may differ in a detail not shown here. Equal values may be shown once.

Columns and labels:
[1] = biological target: T1, Pseudomonas stutzeri WM88 phosphite dehydrogenase, wild type, SEQ ID NO: 3, C-terminal His tag fusion (PtxDPst) (Stutzerimonas stutzeri, UniProt O69054); assay: Activity of phosphite dehydrogenase protein in the presence of inhibitor; type: biochemical; parameters: key to relative value of OD340 (activity in the presence of inhibitor, control = 100): OD340 relative to no-protein negative control = 100; conditions: 30° C., 60 minutes; for relative value of OD340 (activity in the presence of inhibitor, control = 100): 50 μL of 40 mM inhibitor in the reaction solution (500 μL in total); for activity in the presence of inhibitor (in words): 50 μL of 40 mM inhibitor in the reaction solution
T1 construct: His tag (C); made in house; host or cells: E. coli Rosetta2 (DE3), plasmid pET21b
T1 sequence (O69054 1-336): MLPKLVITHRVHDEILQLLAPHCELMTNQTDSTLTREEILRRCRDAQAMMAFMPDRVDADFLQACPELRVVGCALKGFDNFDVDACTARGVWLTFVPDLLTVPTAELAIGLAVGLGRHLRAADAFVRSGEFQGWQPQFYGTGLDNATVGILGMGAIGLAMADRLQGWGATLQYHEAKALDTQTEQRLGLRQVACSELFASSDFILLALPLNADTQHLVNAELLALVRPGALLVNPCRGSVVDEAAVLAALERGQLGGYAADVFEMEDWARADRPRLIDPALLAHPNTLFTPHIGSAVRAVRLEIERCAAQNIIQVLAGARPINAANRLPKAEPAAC
From the text: (§1) By a well-known method, the base sequence of SEQ ID NO: 2 or a phosphite dehydrogenase gene (SEQ ID NO: 4) of P stutzeri WM88 was inserted into a plasmid pET21b (produced by Novagen) (an amino acid sequence of the protein encoded by the base sequence of SEQ ID NO: 4 is shown in SEQ ID NO: 3) to prepare (i) an expression vector of a fusion protein (see “PtxD4506” in FIG. 2) in which the C-terminal of the phosphite dehydrogenase protein of SEQ ID NO: 1 is labeled with a His tag or (ii) an expression vector of a fusion protein (see “PtxDPst” in FIG. 2) in which the C-terminal of the phosphite dehydrogenase protein of P stutzeri WM88 is labeled with a His tag.
(§2) The supernatant was supplied to a HisTrap column (produced by GE Healthcare) and, in accordance with protocols attached to the HisTrap column, a fusion protein in which a His tag was connected to the C-terminal of the phosphite dehydrogenase protein of SEQ ID NO: 1 was purified.
(§3) PtxD4506 and PtxDPst, which were purified with use of the HisTrap column in [3. […] An experimental method was based on a method described in the literature “Costas et al., Journal of Biological Chemistry, 2001, 276, 17429-17436.” The experimental method is briefly described below.
(§4) A reaction solution was prepared by mixing 100 μL of 100 mM MOPS-KOH (pH 7.25), 50 μL of 10 mM NAD, 5 μL of 5 mM phosphite, 50 μL of 40 mM inhibitor of various kinds (arsenite, nitrate, sulfate, or NaCl), 294 μL of H2O, and 1 μL of 0.5 mg/mL protein-containing solution (a PtxD4506-containing solution, a PtxDPst-containing solution, or a liquid which contained no protein (negative control)).
(§5) The reaction solution was reacted for 60 minutes. Note that the reaction solution containing the PtxD4506-containing solution was reacted at 45° C., and the reaction solution containing the PtxDPst-containing solution was reacted at 30° C. Subsequently, OD340 was measured. A relative value of OD340 of each sample was calculated relative to 100 of a value of OD340 of the reaction solution containing the liquid which contained no protein (negative control). Note that each experiment was conducted 4 times or more, and an average of relative values obtained in the 4 or 5 experiments was also calculated.

[2] = biological target: T2, Ralstonia sp. strain 4506 phosphite dehydrogenase, SEQ ID NO: 1, C-terminal His tag fusion (PtxD4506) (Ralstonia sp. 4506, UniProt G4XDR8); assay: as above; type: biochemical; conditions: 45° C., 60 minutes; for relative value of OD340 (activity in the presence of inhibitor, control = 100): 50 μL of 40 mM inhibitor in the reaction solution (500 μL in total); for activity in the presence of inhibitor (in words): 50 μL of 40 mM inhibitor in the reaction solution
T2 sequence (G4XDR8 1-336): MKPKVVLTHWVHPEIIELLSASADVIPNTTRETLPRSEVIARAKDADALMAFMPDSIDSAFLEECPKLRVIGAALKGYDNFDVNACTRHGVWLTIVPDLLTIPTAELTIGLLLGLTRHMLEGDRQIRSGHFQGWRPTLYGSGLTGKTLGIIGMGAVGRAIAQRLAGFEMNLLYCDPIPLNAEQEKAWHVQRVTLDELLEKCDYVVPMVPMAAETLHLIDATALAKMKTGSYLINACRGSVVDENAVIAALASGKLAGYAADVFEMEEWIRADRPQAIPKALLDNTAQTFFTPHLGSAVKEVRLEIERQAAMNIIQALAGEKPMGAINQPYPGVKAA
From the text: as §1, §2, §3, §4, §5

[3] = biological target: T2, Ralstonia sp. strain 4506 phosphite dehydrogenase, SEQ ID NO: 1, C-terminal His tag fusion (PtxD4506); assay: Reaction kinetic analysis: NADH production rate at varied NAD+ concentration
[4] = biological target: T1, Pseudomonas stutzeri WM88 phosphite dehydrogenase, wild type, SEQ ID NO: 3, C-terminal His tag fusion (PtxDPst); assay: as above; type: biochemical; conditions: NAD+ 0.5 μM to 200 μM, 28° C., individual experiments 1-3
From the text: as §1
The supernatant was supplied to a HisTrap column (produced by GE Healthcare) and, in accordance with protocols attached to the HisTrap column, a fusion protein in which a His tag was connected to the C-terminal of the phosphite dehydrogenase protein of SEQ ID NO: 1 was purified. […]
Reaction rates of respective PtxD4506 and PtxDPst were calculated on the basis of (Reaction formula 1) shown in the section [Background Art].
Specifically, in the reaction system of (Reaction formula 1), a production rate of NADH was measured with use of 7.5 μg of each of the fusion proteins PtxD4506 and PtxDPst while a concentration of a substrate (NAD^+) was gradually changed from 0.5 μM to 200 μM. […]

[5] = pH 7.25, average of 4 or 5 experiments
[6] = pH 7.25, individual experiments 1-5
[7] = NAD+ 0.5 μM to 200 μM, 40° C., individual experiments 1-3

Row | Compound | relative value of OD340 (activity in the presence of inhibitor, control = 100) [1, 5] | relative value of OD340 (activity in the presence of inhibitor, control = 100) [1, 6] | activity in the presence of inhibitor (in words) [1] | relative value of OD340 (activity in the presence of inhibitor, control = 100) [2, 5] | relative value of OD340 (activity in the presence of inhibitor, control = 100) [2, 6] | activity in the presence of inhibitor (in words) [2] | Kcat [3, 7] | Vmax [3, 7] | Vmax of PtxD4506 relative to that of PtxDPst ([3]; NAD+, PtxD4506 at 40° C., PtxDPst at 28° C.) | Kcat [4] | Vmax [4]
1 | O[As](O)O [Arsenite] | 86.6 | 82.3 and 90.4 and 88.6 and 91.4 and 90.7 | inhibited | 101.6 | 102.6 and 102.2 and 101.7 and 101.3 and 100.2 | maintained in a high level |  |  |  |  | 
2 | NC(=O)c1ccc[n+]([C@@H]2O[C@H](COP(=O)([O-])OP(=O)(O)OC[C@H]3O[C@@H](n4cnc5c(N)ncnc54)[C@H](O)[C@@H]3O)[C@@H](O)[C@H]2O)c1 [NAD+] |  |  |  |  |  |  | 4.262 s⁻¹ and 4.068 s⁻¹ and 3.54 s⁻¹ | 6.4 µmol/min/mg and 6.1 µmol/min/mg and 5.3 µmol/min/mg | about 1.4 times | 3.235 s⁻¹ and 2.732 s⁻¹ and 2.513 s⁻¹ | 4.9 µmol/min/mg and 4.1 µmol/min/mg and 3.8 µmol/min/mg
3 | O=[N+]([O-])O [Nitrate] | 18.3 | 15.3 and 21.8 and 20.3 and 20.1 and 14.0 | inhibited | 35.7 | 29.2 and 39.6 and 40.2 and 40.3 and 29.3 | maintained in a high level |  |  |  |  | 
4 | N.N.O=S(O)O [Sulfite] | 14.0 | 15.4 and 15.3 and 16.2 and 9.2 |  | 52.5 | 53.2 and 58.8 and 57.0 and 40.9 |  |  |  |  |  | 
5 | O=S(=O)(O)O [sulfate] |  |  | inhibited |  |  | maintained in a high level |  |  |  |  | 
